Values joined by “and” are separate entries in the source; they are usually repeats but may differ in a detail not shown here. Identical values can stand only once. Like-named read-outs stand apart in the source and are kept apart here.
Molecular target: CT-L activity of purified 20S proteasome (Homo sapiens, UniProt P20618+P28074)
Assay: in vitro CT-L activity of purified 20S proteasome
Assay type: biochemical
Conditions: for inhibition at 10 µM: Table 5, @ 10 μM, read-out: Screening Results (% Inhibition @ 10 μM) Chymotrypsin-like; for fold improved CT-L activity: compared to the hit 1 (PI-1833); for fold loss of CT-L activity: compared to 11ad or 11ae
[1] = Table 5, read-out: IC50 (μM) Chymotrypsin-like
[2] = Table 3, read-out: IC50 (μM) CT-L
[3] = Table 1, read-out: IC50 (μM) Chymotrypsin-like activity

| Structure (SMILES) | IC50 (read-out: IC50, in vitro CT-L) | IC50 [3] | other results |
| --- | --- | --- | --- |
| Cc1ccc(-c2noc(CN(C(=O)COc3ccc(C(C)C)cc3)C(C)C)n2)cc1 |  |  | IC50 [1]: 4.12 ± 0.09 µM |
| CC(C)c1ccc(OCC(=O)N(Cc2nc(-c3ccc(Cl)cc3)no2)C(C)C)cc1 |  |  | IC50 [1]: 5.13 ± 0.09 µM |
| CC(C)N(Cc1nc(-c2ccccc2)no1)C(=O)CCl |  |  | inhibition at 10 µM: -53 ± 23.4% |
| Cc1ccc(OC(C)C(=O)N(Cc2nc(-c3ccccc3)no2)C(C)C)cc1 (stereo not drawn) |  |  | inhibition at 10 µM: 92.43 ± 0.82%; IC50 [1]: 0.92 ± 0.21 µM |
| Cc1ccc(OC(C)C(=O)N(Cc2nc(-c3cccnc3)no2)C(C)C)cc1 (stereo not drawn) |  |  | inhibition at 10 µM: 92.9 ± 1.7%; IC50 [1]: 0.38 ± 0.099 µM |
| Cc1ccc(OCC(=O)N(Cc2coc(-c3ccccc3)n2)C(C)C)cc1 |  |  | IC50 [1]: 0.14 ± 0.003 µM |
| CCCc1ccc(O[C@H](C)C(=O)N(Cc2nc(-c3cccnc3)no2)C(C)C)cc1 |  |  | IC50 [1]: 2.39 µM and 1.99 µM |
| CCCc1ccc(OC(C)C(=O)N(Cc2nc(-c3cccnc3)no2)C(C)C)cc1 (racemic) [drawing 177] |  |  | IC50 [1]: 0.289 µM |
| CCCc1ccc(O[C@@H](C)C(=O)N(Cc2nc(-c3cccnc3)no2)C(C)C)cc1 (single isomer, unassigned) [16f] |  |  | IC50 [2]: 2.18 ± 0.28 µM |
| CCCc1ccc(O[C@@H](C)C(=O)N(Cc2nc(-c3cccnc3)no2)C(C)C)cc1 (single isomer, unassigned) [drawing 176] |  |  | IC50 [1]: 0.075 µM |
| Cc1ccc(-c2noc(CN(C(=O)COc3ccc(C(F)(F)F)cc3)C(C)C)n2)cc1 [11a, N-Isopropyl-N-((3-p-tolyl-1,2,4-oxadiazol-5-yl)methyl)-2-(4-(trifluoromethyl)phenoxy)acetamide] | ~1 µM | 1.08 ± 0.33 µM |  |
| CCc1ccc(OCC(=O)N(Cc2nc(-c3ccccc3)no2)C(C)C)cc1 [11aa, 2-(4-Ethylphenoxy)-N-isopropyl-N-((3-phenyl-1,2,4-oxadiazol-5-yl)methyl)acetamide] | 0.26 ± 0.05 µM | 0.267 ± 0.05 µM | fold improved CT-L activity: 2 fold |
| CCc1ccc(OCC(=O)N(Cc2nc(-c3cccnc3)no2)C(C)C)cc1 [11ab, 2-(4-Ethylphenoxy)-N-isopropyl-N-((3-pyridin-3-yl)1,2,4-oxadiazol-5-yl)methylacetamide] | 0.099 ± 0.03 µM |  | fold improved CT-L activity: 6 fold |
| CC(C)N(Cc1nc(-c2cccnc2)no1)C(=O)COc1ccccc1 [11ac, N-Isopropyl-2-phenoxy-N-((3-(pyridine-3-yl)-1,2,4-oxadiazol-5-yl)methyl)acetamide] | 3.12 ± 1.11 µM |  |  |
| CCCCc1ccc(OCC(=O)N(Cc2nc(-c3cccnc3)no2)C(C)C)cc1 [11ae, 2-(4-Butylphenoxy)-N-isopropyl-N-((3-(pyridine-3-yl)-1,2,4-oxadiazol-5-yl)methyl)acetamide] | 0.039 µM |  | fold improved CT-L activity: 20 fold |
| CCCCCc1ccc(OCC(=O)N(Cc2nc(-c3cccnc3)no2)C(C)C)cc1 [11af] |  | 0.121 ± 0.04 µM | fold loss of CT-L activity: 4 fold |
| CCCCCCc1ccc(OCC(=O)N(Cc2nc(-c3cccnc3)no2)C(C)C)cc1 [11ag, 2-(4-Hexylphenoxy)-N-isopropyl-N-((3-(pyridine-3-yl)-1,2,4-oxadiazol-5-yl)methyl)acetamide] |  | 0.428 ± 0.038 µM | fold loss of CT-L activity: 13 fold |
| CC(C)N(Cc1nc(-c2cccnc2)no1)C(=O)COc1ccc(C2CCCCC2)cc1 [11ah] |  | 1.36 ± 0.184 µM | fold loss of CT-L activity: 40 fold |
| CC(C)c1ccc(OCC(=O)N(Cc2nc(-c3cccnc3)no2)C(C)C)cc1 [11ai, N-Isopropyl-2-(4-isopropylphenoxy)-N-((3-(pyridin-3-yl)-1,2,4-oxadiazol-5-yl)methyl)acetamide] |  | 0.436 ± 0.073 µM | CT-L inhibitory activity, in words: failed to improve the CT-L activity |
| CC(C)N(Cc1nc(-c2cccnc2)no1)C(=O)COc1ccc(C(C)(C)C)cc1 [11aj, N-Isopropyl-2-(4-tert-butylphenoxy)-N-((3-(pyridin-3-yl)-1,2,4-oxadiazol-5-yl)methyl)acetamide] |  | 65.9 ± 33.7 µM | CT-L inhibitory activity, in words: failed to improve the CT-L activity; fold loss of CT-L activity: > 35 fold |
| CC(C)Cc1ccc(OCC(=O)N(Cc2nc(-c3cccnc3)no2)C(C)C)cc1 [11ak, N-Isopropyl-2-(4-isobutylphenoxy)-N-((3-(pyridin-3-yl)-1,2,4-oxadiazol-5-yl)methyl)acetamide] |  | 0.14 ± 0.052 µM | CT-L inhibitory activity, in words: failed to improve the CT-L activity |

Second part, led by results:

| IC50 (read-out: IC50, in vitro CT-L) | IC50 [3] | Structure (SMILES) | other results |
| --- | --- | --- | --- |
| 0.318 µM |  | Cc1ccc(OC(C)C(=O)N(Cc2nc(-c3cccnc3)no2)C(C)C)cc1 (racemic) [16a] | IC50 [2]: 0.38 ± 0.099 µM |
| 0.289 µM |  | CCCc1ccc(OC(C)C(=O)N(Cc2nc(-c3cccnc3)no2)C(C)C)cc1 (racemic) [16d, N-Isopropyl-2-(4-propylphenoxy)-N-((3-(pyridine-3-yl)-1,2,4-oxadiazol-5-yl)methyl)propanamide] |  |
| 0.032 µM |  | CCCc1ccc(OCC(=O)N(Cc2nc(-c3cncnc3)no2)C(C)C)cc1 [11al] |  |
|  | 0.105 ± 0.031 µM | CCCc1ccc(OCC(=O)N(Cc2nc(-c3cnccn3)no2)C(C)C)cc1 [11am, N-Isopropyl-2-(4-propylphenoxy)-N-((3-(pyrazin-2-yl)-1,2,4-oxadiazol-5-yl)methyl)acetamide] | fold loss of CT-L activity: 3 fold |
|  | 0.107 ± 0.013 µM | CCCCc1ccc(OCC(=O)N(Cc2nc(-c3cnccn3)no2)C(C)C)cc1 [11an] | fold loss of CT-L activity: 3 fold |
| 1.26 µM | 1.27 ± 0.226 µM | CCCc1ccc(OCC(=O)N(Cc2nc(-c3ncccn3)no2)C(C)C)cc1 [11ao, N-Isopropyl-2-(4-propylphenoxy)-N-((3-(pyrimidin-2-yl)-1,2,4-oxadiazol-5-yl)methyl)acetamide] | fold loss of CT-L activity: 40 fold |
|  | > 10 µM | CC(C)N(Cc1nc(-c2ccccc2)no1)C(=O)COc1ccc(C(=O)OC(C)(C)C)cc1 [11aq, tert-Butyl 4-(2-(isopropyl((3-phenyl-1,2,4-oxadiazol-5-yl)methyl)amino)-2-oxoethoxy)benzoate] |  |
| 0.3 to 0.5 µM | 0.43 ± 0.12 µM | CC(C)N(Cc1nc(-c2ccccc2)no1)C(=O)COc1ccc(C(F)(F)F)cc1 [11b, N-Isopropyl-N-((3-phenyl-1,2,4-oxadiazol-5-yl)methyl)-2-(4-(trifluoromethyl)phenoxy)acetamide] |  |
| 2.53 µM |  | CC(C)N(Cc1nc(-c2ccc(C(F)(F)F)cc2)no1)C(=O)COc1ccc(C(F)(F)F)cc1 [11c, N-Isopropyl-2-(4-(trifluoromethyl)phenoxy)-N-((3-(4-(trifluoromethyl)phenyl)-1,2,4-oxadiazol-5-yl)methyl)acetamide] |  |
| ~1 µM | 0.857 ± 0.35 µM | CC(C)N(Cc1nc(-c2ccc(Cl)cc2)no1)C(=O)COc1ccc(C(F)(F)F)cc1 [11d, N-((3-(4-chlorophenyl)-1,2,4-oxadiazol-5-yl)methyl)-N-isopropyl-2-(4-(trifluoromethyl)phenoxy)acetamide] |  |
| ~1 µM | 1.12 ± 0.33 µM | Cc1ccc(-c2noc(CN(C(=O)COc3ccc(Cl)cc3)C(C)C)n2)cc1 [11e, 2-(4-Chlorophenoxy)-N-isopropyl-N-((3-p-tolyl-1,2,4-oxadiazol-5-yl)methyl)acetamide] |  |
| ~1 µM | 1.4 ± 0.185 µM | CC(C)N(Cc1nc(-c2ccc(C(F)(F)F)cc2)no1)C(=O)COc1ccc(Cl)cc1 [11f, 2-(4-Chlorophenoxy)-N-isopropyl-N-((3-(4-(trifluoromethyl)phenyl)-1,2,4-oxadiazol-5-yl)methyl)acetamide] |  |
| 1.07 µM |  | CC(C)N(Cc1nc(-c2ccc(Cl)cc2)no1)C(=O)COc1ccc(Cl)cc1 [11g, 2-(4-Chlorophenoxy)-N-((3-(4-chlorophenyl)-1,2,4-oxadiazol-5-yl)methyl)-N-isopropylacetamide] |  |

— US9878999B2, “Proteasome chymotrypsin-like inhibition using PI-1833 analogs” (H. Lee Moffitt Cancer Center and Research Institute, Inc., priority 2011, dated 2018)
